Results published in patent US9517221B2, “(2R)-2-propyloctanoic acid for functional brain disease” (ONO PHARMACEUTICAL CO., LTD., priority 2006, dated 2016).

Key:
Format in all cases: in vivo, rat
[1] = test system: olfactory bulbectomized rats; assay: Influence upon anxiolytic behavior on an elevated plus maze in olfactory bulbectomized rats (Test Example 4-3); conditions: once a day for 8 days; test 2 hours after administration; present tense
Excerpt: Wistar male rats are used in the test. By fixing the head of each rat under pentobarbital sodium anesthesia to a brain stereotaxic apparatus, the head skin is incised and then holes are opened at right and left olfactory bulb regions using a dental drill to suck and remove the right and left olfactory bulbs using an aspirator. The head skin is stitched thereafter. In this connection, the suction and removal of olfactory bulbs are not carried out in the sham-operation group, and the head skin is stitched after opening holes at right and left olfactory bulb regions. […]
An elevated plus maze apparatus consisting of a open arm without a wall and a closed arm having a wall is used in the test. […] The anxiolytic behavior is analyzed from the pictures of a video camera by a video picture behavior analysis device.
The vehicle and test drug are repeatedly administered once a day for 8 days. […] After 2 hours of the administration, the animal is softly put on the platform toward one of the open arms and measured for 5 minutes. […] The items (1) to (6) shown below are measured using the video picture behavior analysis device, and (7) and (8) are counted after completion of the measurement. […]

[2] = test system: olfactory bulbectomized rats; assay: Hyperemotional reactivity (hyperemotional score) of olfactory bulbectomized rats; design: key to Hyperemotional score (mean ± S. E.), One day administration, Before administration / Hyperemotional score (mean ± S. E.), One day administration, After administration / Hyperemotional score (mean ± S. E.), Seven days administration, Before administration / Hyperemotional score (mean ± S. E.), Seven days administration, After administration: irritability score per Gomita et al. (1983) criteria; conditions: for Hyperemotional score (mean ± S. E.), Seven days administration, After administration: 1 hour to 1 hour 10 minutes after 7 days administration; for Hyperemotional score (mean ± S. E.), Seven days administration, Before administration: before administration of the 7 days administration; for Hyperemotional score (mean ± S. E.), One day administration, After administration: 1 hour to 1 hour 10 minutes after 1 day administration; for Hyperemotional score (mean ± S. E.), One day administration, Before administration: baseline before grouping, 12 animals
Experimental: SPF rats (Crlj: WI) were used in the test. The animal for olfactory bulbectomy was anesthetized with pentobarbital sodium (Nembutal R Injection, Dainippon Pharmaceutical, dose: 1 mL/kg (intraperitoneal administration)), and the head was fixed using a brain stereotaxic apparatus (ASI Instruments, Inc., NARISHIGE). After incising the head skin, holes are opened at right and left olfactory bulb regions of the skull using a dental drill (manufactured by MINITOR), and the right and left olfactory bulbs were removed by sucking them using an aspirator connected to a tip-removed oral sonde, and the head skin was stitched thereafter. In this connection, in the case of the animals for sham-operation, anesthesia, brain fixation and head skin incision were carried out in the same manner as in the animals for olfactory bulbectomy, holes are opened at right and left olfactory bulb regions of the skull and the head skin was stitched without carrying out suction removal of the olfactory bulbs. The rats after olfactory bulbectomy were put into a series of five stainless steel cages, each of which was partitioned into two parts with an acrylic board for individual rearing space, and individually reared under a dark condition. The rats were subjected to the following tests of (2) and (3).
• (a) Sham-operation group (12 animals); • (b) Vehicle control group (12 animals); • (c) 3 mg/kg administration group (12 animals) of (2R)-2-propyloctanoic acid; • (d) 10 mg/kg administration group (12 animals) of (2R)-2-propyloctanoic acid; • (e) 10 mg/kg administration group (12 animals) of Milnacipran hydrochloride. [Drug Administration]
As shown below, drug solution or vehicle was administered once a day for 8 days, a total of 8 times, at a respective liquid dose of 5 mL/kg. • (a) Sham-operation group: vehicle (0.1% by volume Tween 80) aqueous solution; • (b) Vehicle control group: vehicle (0.1% by volume Tween 80) aqueous solution; • (c) 3 mg/kg administration group of (2R)-2-propyloctanoic acid: a drug solution in which (2R)-2-propyloctanoic acid was prepared to be 0.6 mg/mL with the vehicle; • (d) 10 mg/kg administration group of (2R)-2-propyloctanoic acid: a drug solution in which (2R)-2-propyloctanoic acid was prepared to be 2.0 mg/mL with the vehicle; • (e) 10 mg/kg administration group of milnacipran hydrochloride: a drug solution in which Milnacipran hydrochloride was prepared to be 2.3 mg/mL with the vehicle (Milnacipran itself is included in 2.0 mg/mL). (2) Examination of the Activity for Hyperemotional Reactivity <Evaluation Method>
Evaluation of the hyperemotional reactivity was carried out (1) before the grouping, (2) from 1 hour to 1 hour and 10 minutes after administration of the 1 day drug administration, (3) before administration of the 7 days administration and (4) from 1 hour to 1 hour and 10 minutes after the administration (a total of 4 times), by scoring the degree of irritability once a rat in accordance with the following evaluation criteria of hyperemotional reactivity (hyperemotional score: prepared based on the method of Gomita et al. (Folia Pharmacologica Japonica, 82, 267, 1983). Additionally, all of the conditions of the evaluation were shot and recorded using a video camera (SSC-DC430, SONY) and handled as reference data.

[3] = test system: olfactory bulbectomized rats; assay: Influence on hyperemotional score in olfactory bulbectomized rats (Test Example 4-2); conditions: oral once a day for 7 days; present tense
Excerpt: Wistar male rats are used in the test. By fixing the head of each rat under pentobarbital sodium anesthesia to a brain stereotaxic apparatus, the head skin is incised and then holes are opened at right and left olfactory bulb regions using a dental drill to suck and remove the right and left olfactory bulbs using an aspirator. The head skin is stitched thereafter. In this connection, the suction and removal of olfactory bulbs are not carried out in the sham-operation group, and the head skin is stitched after opening holes at right and left olfactory bulb regions. The rats after extraction of the olfactory bulbs are put into a series of five stainless steel cages, each of which is partitioned into two parts with an acrylic board for individual rearing space, and individually reared for 2 weeks under a dark condition, and then subjected to the following tests of <4-2> and <4-3>.
The vehicle and test drug are orally administered once a day repeatedly for 7 days. The evaluation is carried out under a quiet environment, before the grouping and on the 1st and 7th days after administration of the test drug. The degree of irritability is scored in accordance with the evaluation criteria shown below, before the grouping and before the administration of 7 days test drug administration, and after 1 hour of the administration of test drug administration of 1 day and 7 days. […]

CCCCCC[C@@H](CCC)C(=O)O [(2R)-2-propyloctanoic acid]
Anxiolytic behavior versus vehicle treating group [1]: suppresses the anxiolytic behavior
Development of hyperemotionality versus vehicle control group ([2]; 1st day and 7th day of the administration, result in words): inhibited development of hyperemotionality
Hyperemotional score (mean ± S. E.), Seven days administration, After administration ([2]; dose 3 mg/kg once a day): 5.9 ± 1.5
Hyperemotional score (mean ± S. E.), Seven days administration, Before administration ([2]; dose 3 mg/kg once a day): 6.3 ± 1.0
Hyperemotional score (mean ± S. E.), One day administration, After administration ([2]; dose 3 mg/kg): 8.8 ± 1.4
Hyperemotional score (mean ± S. E.), One day administration, Before administration ([2]; dose 3 mg/kg): 20.0 ± 0.0
Hyperemotional score (mean ± S. E.), Seven days administration, After administration ([2]; dose 10 mg/kg once a day): 4.8 ± 0.8
Hyperemotional score (mean ± S. E.), Seven days administration, Before administration ([2]; dose 10 mg/kg once a day): 6.7 ± 1.4
Hyperemotional score (mean ± S. E.), One day administration, After administration ([2]; dose 10 mg/kg): 7.4 ± 0.9
Hyperemotional score (mean ± S. E.), One day administration, Before administration ([2]; dose 10 mg/kg): 20.0 ± 0.0
Development of hyperemotionality versus vehicle group [3]: inhibits development of hyperemotionality
